What was measured:
CYP2D6 = tested on: CYP2D6; parameters: species or system human; conditions: in vivo
Method: Blood samples for pharmacogenomic analysis were collected and all samples anonymised for subsequent storage, assay and analysis. The impact on Cmax and AUC of genetic polymorphisms of CYP2D6, which is assumed to make some contribution to the hydroxylation of TP3076, but not TP3011, AOX1, which metabolises TP3076 to TP3011, and UGT1A1, which metabolises SN-38 to its glucuronide, but is not believed to influence TP300 metabolism were explored. The analysis was performed with the invader method or polymerase chain reaction (PCR)-invader method for single nucleotide polymorphisms (SNPs) of CYP2D6 and UGT1A1 *28 and with the long-PCR method for deletion of CYP2D6 and UGT1A1 gene. AOX1 SNPs were analysed by a direct sequencing method. Genomic DNAs were extracted from frozen peripheral blood of 31 subjects using an automated DNA extractor BioRobotMDx and commercial DNA purification kits (Qiagen). Quality and quantity of the DNAs were checked by the measurement of absorbencies at 260 nm and 280 nm. Primers were designed to amplify all the 35 exons of Aldehyde oxidese 1 gene (NCBI accession No. NM_001159) including some intronic flanking regions. […] The fragments obtained were purified using X-Terninator purification kit (Applied Biosystems) and analysed on an automated DNA sequencer (3730xl DNA Analyzer, Applied Biosystems). […]

UGT1A1 = conditions: human, in vivo
Method: (§1) Blood samples for pharmacogenomic analysis were collected and all samples anonymised for subsequent storage, assay and analysis. The impact on Cmax and AUC of genetic polymorphisms of CYP2D6, which is assumed to make some contribution to the hydroxylation of TP3076, but not TP3011, AOX1, which metabolises TP3076 to TP3011, and UGT1A1, which metabolises SN-38 to its glucuronide, but is not believed to influence TP300 metabolism were explored. The analysis was performed with the invader method or polymerase chain reaction (PCR)-invader method for single nucleotide polymorphisms (SNPs) of CYP2D6 and UGT1A1 *28 and with the long-PCR method for deletion of CYP2D6 and UGT1A1 gene. AOX1 SNPs were analysed by a direct sequencing method. Genomic DNAs were extracted from frozen peripheral blood of 31 subjects using an automated DNA extractor BioRobotMDx and commercial DNA purification kits (Qiagen). Quality and quantity of the DNAs were checked by the measurement of absorbencies at 260 nm and 280 nm. Primers were designed to amplify all the 35 exons of Aldehyde oxidese 1 gene (NCBI accession No. NM_001159) including some intronic flanking regions. The specificity of PCR conditions was confirmed by the agarose gel electrophoresis. Amplicons were prepared twice for every exons. The amplicons were subsequently treated with ExoSAP-IT (GE Healthcare) followed by the reactions with a cycle sequencing kit (BigDye Terminator v3.1, Applied Biosystems). The fragments obtained were purified using X-Terninator purification kit (Applied Biosystems) and analysed on an automated DNA sequencer (3730xl DNA Analyzer, Applied Biosystems). The resulted sequences were compared against the reference sequence using the variant reporter software (Applied Biosystems).

AOX1 = conditions: human, in vivo
Method: as §1

[1] = tested on: HCT-116 colorectal cancer cells; parameters: method as in PMID 19254843; conditions: HCT-116 colorectal cancer cells in vitro; cited from earlier work
Topo-1 = tested on: Topo-1; parameters: method as in PMID 19495753; conditions: cited from earlier work
[2] = Plasma and urine pharmacokinetics after TP300 infusion (LC-MS/MS, non-compartmental); assay type: in vivo, human; conditions: for fe (urinary excretion ratio): urine up to 48 hours, mean
Method: Venous blood (3 mL) was taken into sodium heparin tubes containing 30 μL of 46% citric acid, centrifuged 1500g at 4°C for 10 min and 1 mol/L hydrochloric acid was added (1:10) to plasma from each subject at 10 time points during cycle 1 (pre dose, then 1, 1.25, 1.5, 2, 3, 5, 8, 24, 48 hours after the start of administration) and stored at −70°C. Samples were processed by extraction of protein using addition of organic solvent containing internal standards and assayed by LC-MS/MS with a robust, sensitive and validated method for the simultaneous determination of a novel topoisomerase 1 inhibitor CH0793076 (TP3076), the prodrug CH4556300 (TP300), and the active metabolite CH0793011 (TP3011). All plasma had been acidified during collection to avoid the pH-based degradation of TP300 and to shift the equilibria of TP3076 and TP3011 between the lactone and carboxylate forms towards the lactone forms. After the plasma proteins were precipitated with methanol:acetonitrile:HCl 1M (50:50:1, v:v:v) containing stable isotopic internal standards, the analytes were trapped on an Xterra MS C18 column (10×2.1 mm i.d., 5 μm) and separated on a Gemini C18 column (50×2.0 mm i.d., 5 μm) using column-switching liquid chromatography. Electrospray ionization in the positive-ion mode and multiple reaction monitoring were used to quantify the analytes with transitions m/z 587.2>441.2 for TP300, 459.1>415.2 for 3076, and 475.1>361.1 for 3011. The inter- and intra-day precisions were below 12%, and the accuracy was between −16% and 16% at the lower limit of quantitation (LLOQ) and between −11% and 14% at the other quality controls. The LLOQs of TP300, TP3076, and TP3011 were 0.8, 0.04, and 0.04 ng/mL, respectively.
Pharmacokinetic parameters derived from plasma concentration-time data of TP3076 or TP3011 by non-compartmental methods using WinNonlin (version 5.1; Pharsight Corp), included maximal plasma concentration (Cmax) and time of Cmax (Tmax), apparent plasma elimination half-life (t1/2), and the area under the curve (AUC). The urinary excretion ratio (fe) of TP3076 and TP3011 was calculated from the urinary concentration and volume up to 48 hours after administration, and the administration dose. The linearity of Cmax and AUC was determined with linear regression, analysis of variance and power model analysis. The sum of the AUCs of TP3076 and TP3011 was plotted against percentage (%) fall in nadir neutrophil count to explore the relationship between exposure and myelosuppression as a measure of anti-proliferative effect and a sigmoid Emax model fitted to the data: […]

[3] = parameters: method as in PMID 10873073; conditions: irinotecan 350 mg/m^2, 3-weekly dosing regimen; cited from earlier work
[4] = TP300 1 mg/m^2 1-hour i.v. infusion, N=3
[5] = TP300 2 mg/m^2 1-hour i.v. infusion, N=3
[6] = TP300 4 mg/m^2 1-hour i.v. infusion, N=3
[7] = TP300 6 mg/m^2 1-hour i.v. infusion, N=3
[8] = TP300 8 mg/m^2 1-hour i.v. infusion, N=3
[9] = TP300 10 mg/m^2 1-hour i.v. infusion, N=12
[10] = TP300 12 mg/m^2 1-hour i.v. infusion, N=4

| Compound | exposure in CYP2D6 extensive metabolisers (CYP2D6) | difference in exposure (Cmax, AUC) among UGT1A1*28 genotypes (UGT1A1) | difference of exposure (Cmax, AUC) among AOX1 (c3404A > G) genotypes (AOX1) | IC50 [1] | Topo-1 inhibition relative to SN38 (Topo-1) | fe (urinary excretion ratio) [2, 4] [%] | fe (urinary excretion ratio) [2, 5] [%] | fe (urinary excretion ratio) [2, 6] [%] | fe (urinary excretion ratio) [2, 7] [%] | fe (urinary excretion ratio) [2, 8] [%] | fe (urinary excretion ratio) [2, 9] [%] | fe (urinary excretion ratio) [2, 10] [%] | Urinary excretion ratios ([2]; human, in vivo) | dose dependence of Cmax and AUC ([2]; human, in vivo) | Tmax ([2]; human, in vivo, Tmax) [h] | half-life ([2]; human, in vivo, iv, t1/2) [h] | AUC of SN-38 at which DLTs occur [3] [µM·h] | Tmax ([2]; human, in vivo, iv, tmax) [h] | Glucuronidated TP3076 (detection) ([2]; in vivo) |
| --- | --- | --- | --- | --- | --- | --- | --- | --- | --- | --- | --- | --- | --- | --- | --- | --- | --- | --- | --- |
| CCCCCN1C(=O)Nc2cccc3nc4c(c1c23)Cn1c-4cc2c(c1=O)COC(=O)[C@]2(O)CC [TP3011] | slight decrease | no apparent significant difference | no apparent significant difference | sub-nanomolar range | equipotent | 0.792 | 0.739 | 0.796 | 0.593 | 0.594 | 1.10 | 1.99 | at most 6% | increased proportionately | 3 to 5 | 6.92 |  |  |  |
| CCc1c2c(nc3ccc(O)cc13)-c1cc3c(c(=O)n1C2)COC(=O)[C@]3(O)CC [SN-38] |  |  |  |  |  |  |  |  |  |  |  |  |  |  |  |  | 1.5 |  |  |
| CCCCCN1C=Nc2cccc3nc4c(c1c23)Cn1c-4cc2c(c1=O)COC(=O)[C@]2(O)CC [TP3076] | slight reduction | no apparent significant difference | no apparent significant difference | sub-nanomolar range | equipotent | 2.45 | 2.87 | 1.31 | 1.78 | 1.71 | 3.09 | 6.33 | at most 6% | increased proportionately | 1 |  |  | 1.26 | not detected |

Reference: article PMC3517777, “Phase I study of TP300 in patients with advanced solid tumors with pharmacokinetic, pharmacogenetic and pharmacodynamic analyses” (BMC Cancer, 2012)
